# Patent publication US20080090734A1, “DRUG SCREENING AND TARGET IDENTIFICATION USING SPR IMAGING OF TARGET PROTEIN ARRAYS” (The Trustees of California State University, priority 2006, published 2008)
# How the values were obtained:
# Assay in all cases: Antibiotic susceptibility profile
# Assay type in all cases: cell-based, Acinetobacter baumannii
# Parameters in all cases: key: Resistance; Intermediate; Susceptible
# [1] = tested on: A. baumannii reference strain AYE
# From the text: (§1) We obtained over thirty clinical isolates of A. baumannii from nosocomial infections in New York City and Los Angeles. […] Only antibiotics with breakpoints for A. baumannii were used. […] Isolates LA 01 to 20 were acquired from Los Angels County while NY-A to NY-H were obtained from New York City.
# (§2) Antibiotic susceptibility profiles of clinical isolates of A. baumannii and reference strains. R, I, and S denote Resistance, Intermediate and Susceptible, respectively. Genetic Profiling of Clinical Isolates of A. baumannii
# [2] = tested on: A. baumannii clinical isolate LAC 06
# From the text: as §1, §2
# [3] = tested on: A. baumannii clinical isolate LAC 19
# From the text: as §1, §2
# [4] = tested on: A. baumannii clinical isolate NY A
# From the text: as §1, §2
# [5] = tested on: A. baumannii clinical isolate NY D
# From the text: as §1, §2
# [6] = tested on: A. baumannii reference strain 15839; details: strain 15839 (ATCC)
# From the text: as §1, §2
# [7] = tested on: A. baumannii clinical isolate LAC 13
# From the text: as §1, §2
# [8] = tested on: A. baumannii clinical isolate NY B
# From the text: as §1, §2
# [9] = tested on: A. baumannii reference strain 17978; details: strain 17978 (ATCC)
# From the text: as §1, §2
# [10] = tested on: A. baumannii clinical isolate LAC 03
# From the text: as §1, §2
# [11] = tested on: A. baumannii clinical isolate LAC 16
# From the text: as §1, §2
# [12] = tested on: A. baumannii clinical isolate LAC 10
# From the text: as §1, §2
# [13] = tested on: A. baumannii reference strain 19606; details: strain 19606 (ATCC)
# From the text: as §1, §2
# [14] = tested on: A. baumannii clinical isolate LAC 12
# From the text: as §1, §2
# [15] = tested on: A. baumannii clinical isolate LAC 11
# From the text: as §1, §2
# [16] = tested on: A. baumannii clinical isolate LAC 08
# From the text: as §1, §2
# [17] = tested on: A. baumannii clinical isolate NY H
# From the text: as §1, §2
# [18] = tested on: A. baumannii clinical isolate LAC 20
# From the text: as §1, §2
# [19] = tested on: A. baumannii clinical isolate NY C
# From the text: as §1, §2
# [20] = tested on: A. baumannii clinical isolate LAC 05
# From the text: as §1, §2
# [21] = tested on: A. baumannii reference strain SDF
# From the text: as §1, §2
# [22] = tested on: A. baumannii clinical isolate LAC 18
# From the text: as §1, §2
# [23] = tested on: A. baumannii clinical isolate LAC 15
# From the text: as §1, §2
# [24] = tested on: A. baumannii clinical isolate LAC 17
# From the text: as §1, §2
# [25] = tested on: A. baumannii clinical isolate LAC 02
# From the text: as §1, §2
# [26] = tested on: A. baumannii clinical isolate LAC 01
# From the text: as §1, §2
# [27] = tested on: A. baumannii clinical isolate LAC 09
# From the text: as §1, §2
# [28] = tested on: A. baumannii clinical isolate NY F
# From the text: as §1, §2
# [29] = tested on: A. baumannii clinical isolate LAC 14
# From the text: as §1, §2
# [30] = tested on: A. baumannii clinical isolate NY E
# From the text: as §1, §2
# [31] = tested on: A. baumannii clinical isolate NY G
# From the text: as §1, §2
# [32] = tested on: A. baumannii clinical isolate LAC 07
# From the text: as §1, §2
# [33] = tested on: A. baumannii clinical isolate LAC 04
# From the text: as §1, §2
Structure (SMILES),Antibiotic susceptibility [1],Antibiotic susceptibility [2],Antibiotic susceptibility [3],Antibiotic susceptibility [4],Antibiotic susceptibility [5],Antibiotic susceptibility [6],Antibiotic susceptibility [7],Antibiotic susceptibility [8],Antibiotic susceptibility [9],Antibiotic susceptibility [10],Antibiotic susceptibility [11],Antibiotic susceptibility [12],Antibiotic susceptibility [13],Antibiotic susceptibility [14],Antibiotic susceptibility [15],Antibiotic susceptibility [16],Antibiotic susceptibility [17],Antibiotic susceptibility [18],Antibiotic susceptibility [19],Antibiotic susceptibility [20],also measured
"COc1c(N2CCNC(C)C2)c(F)cc2c(=O)c(C(=O)O)cn(C3CC3)c12 (stereo not drawn) [GAT, Gatifloxacin]",I,S,I,R,R,R,R,R,S,R,R,R,S,R,R,R,R,R,R,R,Antibiotic susceptibility [21]: S; Antibiotic susceptibility [22]: R; Antibiotic susceptibility [23]: R; Antibiotic susceptibility [24]: R; Antibiotic susceptibility [25]: R; Antibiotic susceptibility [26]: R; Antibiotic susceptibility [27]: R; Antibiotic susceptibility [28]: R; Antibiotic susceptibility [29]: R; Antibiotic susceptibility [30]: R; Antibiotic susceptibility [31]: R; Antibiotic susceptibility [32]: R; Antibiotic susceptibility [33]: S
"C[C@@H](O)[C@H]1C(=O)N2C(C(=O)O)=C(SCCN=CN)C[C@H]12 [IPM, Imipenem]",R,S,I,R,R,S,S,R,S,S,I,R,S,S,S,S,R,I,R,S,Antibiotic susceptibility [21]: S; Antibiotic susceptibility [22]: I; Antibiotic susceptibility [23]: I; Antibiotic susceptibility [24]: I; Antibiotic susceptibility [25]: I; Antibiotic susceptibility [26]: S; Antibiotic susceptibility [27]: R; Antibiotic susceptibility [28]: R; Antibiotic susceptibility [29]: S; Antibiotic susceptibility [30]: R; Antibiotic susceptibility [31]: R; Antibiotic susceptibility [32]: I; Antibiotic susceptibility [33]: S
"C[C@@H](O)[C@H]1C(=O)N2C(C(=O)O)=C(S[C@@H]3CN[C@H](C(=O)N(C)C)C3)[C@H](C)[C@H]12 [MEM, Meropenem]",S,S,R,R,R,S,S,R,S,I,S,R,S,S,R,S,R,I,R,S,Antibiotic susceptibility [21]: S; Antibiotic susceptibility [22]: S; Antibiotic susceptibility [23]: R; Antibiotic susceptibility [24]: S; Antibiotic susceptibility [25]: R; Antibiotic susceptibility [26]: R; Antibiotic susceptibility [27]: R; Antibiotic susceptibility [28]: R; Antibiotic susceptibility [29]: S; Antibiotic susceptibility [30]: R; Antibiotic susceptibility [31]: R; Antibiotic susceptibility [32]: R; Antibiotic susceptibility [33]: S
"CCN1CCN(C(=O)N[C@@H](C(=O)N[C@@H]2C(=O)N3[C@@H]2SC(C)(C)[C@@H]3C(=O)O)c2ccccc2)C(=O)C1=O [PIP, Piperacillin]",R,S,R,R,R,I,R,R,S,R,R,R,I,R,R,I,R,R,R,I,Antibiotic susceptibility [21]: R; Antibiotic susceptibility [22]: R; Antibiotic susceptibility [23]: R; Antibiotic susceptibility [24]: R; Antibiotic susceptibility [25]: R; Antibiotic susceptibility [26]: R; Antibiotic susceptibility [27]: R; Antibiotic susceptibility [28]: R; Antibiotic susceptibility [29]: R; Antibiotic susceptibility [30]: R; Antibiotic susceptibility [31]: R; Antibiotic susceptibility [32]: R; Antibiotic susceptibility [33]: R
